# From ChEMBL document CHEMBL1156829 (Proc Natl Acad Sci U S A, 2008)
# How the values were obtained:
# [1] = system: Plasmodium falciparum; assay: NOVARTIS: Inhibition of Plasmodium falciparum 3D7 (drug-susceptible) proliferation in erythrocyte-based infection assay; type: functional, organism-based
# [2] = system: Plasmodium falciparum; assay: NOVARTIS: Inhibition of Plasmodium falciparum W2 (drug-resistant) proliferation in erythrocyte-based infection assay; type: functional, organism-based
# [3] = NOVARTIS: Cytotoxicity against human hepatocellular carcinoma cell line (Huh7); type: toxicity, cell-based, Huh-7; settings: Huh7 cells (hepatocellular carcinoma cell line)
# [4] = Plasmodium falciparum, W2, read-out: EC50
SMILES,"EC50 ([1]; Plasmodium falciparum, 3D7)","EC50 [2, 4]",CC50 [3],EC50 [1],EC50 ([2]; read-out: EC50),EC50 [2]
CC(Cc1ccccc1Sc1ccccc1O)N(C)C (stereo not drawn),2040 nM,722 nM,34000 nM,,,
CCOC(=O)c1cnc2c(ccc3ccccc32)c1Nc1ccc(NC(C)=O)cc1,6900 nM,1610 nM,> 100000 nM,,,
O=C(NCc1cccnc1)[C@@H]1C[C@H](NC2CCN(CCc3ccccc3)CC2)CN1Cc1ccc(Cl)cc1,88.5 nM,592 nM,18500 nM,,,
O=C(CSc1ccc2nnc(-c3cccc(F)c3)n2n1)Nc1ccc2c(c1)OCO2,2110 nM,819 nM,> 100000 nM,,,
CCCC(=O)N1CCN(C(=O)c2nc(-c3ccccc3)nc(CCC)c2C(=O)OCC)CC1C (stereo not drawn),1200 nM,774 nM,> 10000 nM,,,
O=C(Cn1c2ccccc2c(=O)c2ccc(Cl)cc21)Nc1cccc(Cl)c1,934 nM,589 nM,> 10000 nM,,,
Cc1ccc2nc(-c3ccc(O)cc3)oc2c1,> 1250 nM,> 635 nM,> 10000 nM,,,
Oc1ccc(-c2cccnc2)cc1CNC1C2CC3CC(C2)CC1C3 (stereo not drawn),459 nM,195 nM,> 100000 nM,,,
COc1ccc(Nc2nc(NCc3ccccc3)c3ccccc3n2)cc1,212 nM,106 nM,8670 nM,,,
CC(=O)NC(c1ccc(N(C)C)cc1)c1cc(Cl)c2cccnc2c1O (stereo not drawn),651 nM,39.3 nM,> 100000 nM,,,
COc1ccc(-c2cc(C(=O)NCc3cccnc3)no2)cc1OC,> 1290 nM,1700 nM,> 10000 nM,,,
O=C(Nc1ccccc1O)c1ccc(C(=O)N(C2CCCCC2)C2CCCCC2)cc1,1470 nM,> 2450 nM,> 100000 nM,,,
Cc1c(C(=O)Nc2ccccc2)sc2ncn(Cc3ccccc3Cl)c(=O)c12,5400 nM,2420 nM,> 100000 nM,,,
O=C(Cc1c(F)cccc1Cl)Nc1cc(C(=O)N2CCN(Cc3ccccc3)CC2)ccc1N1CC2CC(C1)c1cccc(=O)n1C2 (stereo not drawn),67.2 nM,30 nM,> 100000 nM,,,
O=C(NCCN1CCOCC1)c1ccc(Cl)cc1 [MOCLOBEMIDE],> 740 nM,> 1250 nM,> 10000 nM,,,
COc1ccc(SC2CCN(C3CCOCC3)CC2)cc1,> 1470 nM,358 nM,240 nM,,,
CCCc1c(C)nc2ccc(Br)cc2c1O,1510 nM,1340 nM,> 100000 nM,,,
CCOc1ccc(Nc2nc(NCc3ccco3)c3ccccc3n2)cc1,288 nM,528 nM,11600 nM,,,
CNC1=C(N(Cc2ccc(Cl)c(Cl)c2)C(C)=O)C(=O)c2ccccc2C1=O,1.23 nM,1.26 nM,126 nM,,,
O=C(C1CCC1)N1CCOc2c(cc(-c3csc4ccccc34)cc2OCCc2ccccn2)C1,754 nM,515 nM,> 99600 nM,,,
CC[n+]1cc(C)ccc1C=Cc1ccc(N(C)C)cc1,,,15200 nM,195 nM,232 nM,
CCOC(=O)C1=C(c2ccccc2)N=c2sc(=Cc3cccnc3)c(=O)n2C1c1c(OC)ccc2ccccc12 (stereo not drawn),4150 nM,1550 nM,> 100000 nM,,,
CCCCN1C(=O)NC(c2ccc(NC(=O)c3cccs3)cc2)C(C(=O)OC(C)C)=C1C (stereo not drawn),8760 nM,3170 nM,> 100000 nM,,,
O=[N+]([O-])c1cc(Cl)c(N2CCOCC2)cc1N1CCOCC1,1040 nM,515 nM,> 100000 nM,,,
O=C(Nc1ccc(Oc2cccnc2)cc1)C1CCN(Cc2ccc3nonc3c2)CC1,1130 nM,1420 nM,> 100000 nM,,,
CC1CN(C(=O)c2sc3cccc(F)c3c2Cl)CC(C)O1 (stereo not drawn),299 nM,232 nM,> 100000 nM,,,

SMILES,"EC50 ([1]; Plasmodium falciparum, 3D7)","EC50 [2, 4]",CC50 [3],EC50 [1],EC50 ([2]; read-out: EC50),EC50 [2]
CCCCCCN(C(=O)c1ccc(CCCCC)cc1)C(CC)c1nc2ccccc2c(=O)n1-c1ccccc1OC (stereo not drawn),1030 nM,699 nM,> 10000 nM,,,
COc1ccc(CNC(=O)c2ccc3c(c2)N=C(/C=C/c2ccccc2)N(CCN2CCOCC2)C3)cc1,790 nM,> 949 nM,> 10000 nM,,,
COc1cnc(-c2ccccn2)nc1NC(C)C,712 nM,1100 nM,2500 nM,,,
OC(COc1ccc(OCC(O)CN2CCN(CCOc3ccccc3)CC2)cc1)CN1CCN(CCOc2ccccc2)CC1 (stereo not drawn),> 11000 nM,853 nM,> 100000 nM,,,
CCN1C(C)=C(C)S/C1=C\c1ccc2cc(C)ccc2[n+]1C,227 nM,170 nM,5720 nM,,,
CN(C)c1cc(NC(=O)Nc2cccc(Cl)c2)c2ccccc2n1,76.5 nM,292 nM,> 10000 nM,,,
CC[n+]1c(/C=C/C=C2\N(C)c3ccccc3C2(C)C)n(-c2ccccc2)c2ccc(C)cc21,1530 nM,1400 nM,> 10000 nM,,,
O=C(NC(=S)Nc1ccc(NC(=O)c2cccs2)cc1)c1ccco1,468 nM,311 nM,> 100000 nM,,,
COCCn1nnnc1C(c1cc2cc3c(cc2[nH]c1=O)OCCO3)N1CCC(O)CC1 (stereo not drawn),> 1250 nM,974 nM,> 10000 nM,,,
CN(CCCNc1ccnc2cc(Cl)ccc12)C(=O)c1ccc(Cl)c([N+](=O)[O-])c1,137 nM,226 nM,> 7920 nM,,,
CCC(CO)Nc1nccnc1-c1ccccc1Oc1ccccc1 (stereo not drawn),4540 nM,3560 nM,> 100000 nM,,,
O=C(Nc1ccc(-c2noc(CCc3ccccc3)n2)cc1)c1cccs1,903 nM,554 nM,15700 nM,,,
CCOC(=O)C1=C(C)N=c2sc(=Cc3c4ccccc4cc4ccccc34)c(=O)n2C1c1cc(OC)ccc1OC (stereo not drawn),> 12500 nM,4770 nM,> 100000 nM,,,
CCCCOC(=O)Cc1ccc(N)cc1,462 nM,284 nM,5970 nM,,,
OC(CN1CCN(Cc2ccccc2)CC1)Cn1c2ccc(Cl)cc2c2cc(Cl)ccc21 (stereo not drawn),218 nM,65.7 nM,15700 nM,,,
O=C(Nc1ccc(Cl)cc1)Oc1ccccc1 [PHENYL 4-CHLOROPHENYLCARBAMATE],> 12500 nM,2010 nM,51900 nM,,,
CCOC(=O)c1cnc(SCC(=O)Nc2cc(C)ccc2C)nc1N,> 1250 nM,> 660 nM,> 10000 nM,,,
Fc1ccc2[nH]c3c(NCCN4CCCCC4)ncnc3c2c1,154 nM,214 nM,23700 nM,,,
O=c1c2cnn(-c3ccccc3)c2nc(-c2ccccc2F)n1-c1ccc(Br)cc1,6790 nM,1230 nM,> 100000 nM,,,
c1ccc(CSc2nc3ccncc3[nH]2)cc1,> 1250 nM,> 1150 nM,> 10000 nM,,,
COc1ccc(CCNC(=O)CC(=O)NN=Cc2ccc(Br)cc2)cc1OC,> 1250 nM,> 429 nM,> 10000 nM,,,
COc1cccc(Cn2c3cc(C)sc3c3cnn(C)c(=O)c32)c1,497 nM,583 nM,68600 nM,,,
OC(CN1CCN(C/C=C/c2ccccc2)CC1)Cn1c2ccc(Br)cc2c2cc(Br)ccc21 (stereo not drawn),589 nM,19.2 nM,> 10000 nM,,,
Cc1cccc(C)c1N(CC(=O)NCc1ccco1)S(C)(=O)=O,851 nM,725 nM,> 10000 nM,,,
O=C(CCl)NCCCCNc1ccnc2cc(Cl)ccc12,> 811 nM,,> 10000 nM,,,No fit
